Results: patent publication US6486127B1, “Compositions comprising D-chiro inositol and lipid lowering compounds and methods of treatment thereof” (Insmed, Incorporated, priority 2001, dated 2002)
Entries after “also recorded” stand apart in the source; their conditions may differ.

What was measured:
[1] = oral or intravenous route; cited from earlier work
[2] = Same clinical trial: insulin during meal tolerance test (MTT); format: in vivo, human
Method: Changes in area-under-the-curve (AUC) and 120-minute insulin and glucose levels during the mcal tolerance test (MTT).
(§1) This multicenter, double-blind, parallel-group, placebo-controlled, randomized, fixed-dose clinical study was designed to evaluate 1200 mg/day D-chiro-inositol versus placebo in 270 obese patients with type 2 diabetes mellitus who had been receiving sulfonylureas for at least 3 months without reaching their target or with suboptimal response.
(§2) The study involved 5 scheduled visits. The first visit was the screening visit, followed by a baseline visit up to 2 weeks later. Patients were randomized at the baseline visit, half to 1200 mg/day D-chiro-inositol and half to placebo, and subsequently began 13 weeks of treatment with blinded study medication. There were 3 visits for safety and efficacy assessments, at 4, 8, and 13 weeks after beginning treatment. The 13-week visit was the final visit. Patients arrived at the investigational site in a fasted state for all visits. Assessments were to be done at the same time of day at each visit by the same responsible personnel. Medication was taken once a day at the same time of morning, except on visit days, on which the dose was delayed until just after fasting blood samples had been collected.
(§3) Biomarkers: A meal tolerance test (MTT) was performed at baseline (Visit 2) and the final visit (Visit 5). In addition, blood was drawn at every visit for assessment of fasting glucose and insulin, HbA1c, C-peptide, fructosamine, FFA, triglycerides, total cholesterol, HDL, VLDL, LDL, and Apo-B levels.
(§4) Secondary Efficacy Variable (s) and Analyses. Since all secondary efficacy parameters were continuous, they were analyzed in the same manner as described above for the primary efficacy parameter, with treatment group and baseline values for the relevant parameter used as predictors. These secondary efficacy parameters included:
AUC (and 120-minute) insulin and glucose levels during the MTT;

[3] = Same clinical trial: fasting serum lipids (cholesterol, LDL, Apo-B, FFA); format: in vivo, human
Method: Changes in levels of triglycerides, total cholesterol, high-density lipoproteins (HDL), low-density lipoproteins (LDL), very-low-density lipoproteins (VLDL), apolipoprotein B (Apo-B), and free fatty acids (FFA).
as §1, §2, §3, §4
Total cholesterol, triglycerides, HDL, LDL, VLDL, Apo-B, and FFA levels;

[4] = Randomized placebo-controlled clinical trial of D-chiro-inositol with sulfonylureas: glycemic markers (HbA1c, fructosamine, fasting glucose); format: in vivo, human; details: for Difference in HbA1c change between D-chiro-inositol and placebo: baseline to endpoint
Method: The objective of this study was to assess the efficacy and safety of D-chiro-inositol when administered as a single oral dose of 1200 mg/day compared to placebo, each in combination with sulfonylureas, for 3 months. Patients were required to have been on sulfonylureas for 3 months prior to study entry without reaching their target dose or with a suboptimal response.
as §1, §2
Patients receiving D-chiro-inositol received four 300 mg capsules once daily for a total daily dose of 1200 mg; placebo patients took 4 placebo capsules once daily. Doses were taken orally, generally in the mornings. Patients were instructed to take their dose in the morning at the same time each day, except on visit days. On visit days, dosing was to be done at the clinic. No instructions were given regarding when to take medication in relation to meals on non-visit days.
as §3
Primary Efficacy Variable(s) and Analyses. The primary analysis was based on the change from baseline to endpoint in HbA1c level using the modified ITT and evaluable study populations. The analysis was done using an analysis of covariance (ANCOVA) model with treatment group and the baseline HbA1c value as predictors.
Secondary Efficacy Variable (s) and Analyses. Since all secondary efficacy parameters were continuous, they were analyzed in the same manner as described above for the primary efficacy parameter, with treatment group and baseline values for the relevant parameter used as predictors.

[5] = streptozotocin-treated rats, obese Zucker rats, or normal rats given a glucose load; cited from earlier work
[6] = Subgroup analysis of the clinical trial: lipid lowering drug / D-chiro-inositol effects on LDL cholesterol; format: in vivo, human; details: type 2 diabetic patients on sulfonylurea, with or without lipid lowering medication
Method: Due to the observation of lipid lowering effects seen in the DCI group, the clinical trial described in EXAMPLE 1 was further analyzed for synergistic interactions between D-chiro-inositol and lipid lowering medications. Certain patients within the trial were treated according to standard of care with HMC-CoA inhibitors (LIPITOR®, LESCOL®, ZOCOR®, MEVACOR®, PRAVACHOL®), gemfibrozil, or a combination of HMC-CoA and gemfibrozil. No inclusion or exclusion criteria were established for the efficacy of the lipid lowering drug efficacy in the patient population. As stated supra, these patients were being sub optimally treated with a sulfonylurea prior to beginning the clinical trial. The patients could not change their lipid lowering dose and/or regimen during the length of the study.

[7] = MTT, evaluable patients with FPG ≦ 180 mg/dL
[8] = MTT, evaluable patients, 1200 mg/day plus sulfonylurea
[9] = evaluable patients with FPG ≦ 180 mg/dL
[10] = evaluable patients, 1200 mg/day plus sulfonylurea
[11] = patients with FPG ≦ 180 mg/dL, 1200 mg/day oral plus sulfonylurea

SMILES: OC1C(O)C(O)C(O)C(O)C1O [D-chiro-inositol]
- Disappearance rate of plasma glucose and insulin [1]: significantly increased the disappearance rate of both plasma glucose and insulin
- Change in insulin AUC from baseline to endpoint, median of individual subjects (FIG. 2) ([2]; DCI+SU group): slightly increased the insulin AUC
- 120-min. insulin, mean change [2, 7]: 5.09 μU/mL
- AUC insulin, mean change [2, 7]: 1070.8 μU/mL·hr
- 120-min. insulin, mean change at endpoint [2, 8]: 3.50 μU/mL
- AUC insulin, mean change at endpoint [2, 8]: 484.4 μU/mL·hr
- Insulin response to meal tolerance test over the treatment period (FIGS. 1A, 1B) ([2]; subjects with fasting blood glucose ≦180 mg/dl, DCI+SU, 13 weeks, listed as DCI): maintained this response after the 13 week course of treatment; also recorded: maintains a constant insulin response over the testing period
- Apo-B, mean change [3, 9]: -4.00 mg/dL
- Cholesterol, mean change [3, 9]: -5.31 mg/dL
- LDL, mean change [3, 9]: -4.14 mg/dL
- Decrease in LDL ([3]; evaluable patients with FPG>180 mg/dL, p=0.036 vs placebo): 2.02 mg/dL
- Apo-B, mean change at endpoint [3, 10]: -1.26 mg/dL
- Cholesterol, mean change at endpoint [3, 10]: -2.74 mg/dL
- FFA, mean change at endpoint [3, 10]: −0.07 mEq/L
- LDL, mean change at endpoint [3, 10]: -2.95 mg/dL
- Fasting glucose, mean change [4, 9]: 12.67 mg/dL
- Fructosamine, mean change [4, 9]: -15.22 µmol/L
- Decrease in mean HbA1c level from baseline to endpoint ([4]; evaluable patients with FPG≦180 mg/dL, stated as a decrease): 0.53%
- Mean change in HbA1c from baseline to endpoint, mean (SD) ([4]; evaluable patients, LOCF at endpoint (13 weeks), 1200 mg/day oral plus sulfonylurea): −0.16 (1.03) %
- Difference in HbA1c change between D-chiro-inositol and placebo ([4]; evaluable population): 0.36%
- Decrease in mean fructosamine levels ([4]; evaluable population, p=0.159 vs placebo): 5.32 µmol/L
- Decrease in mean HbA1c levels from baseline to endpoint ([4]; evaluable population, stated as a decrease): 0.16%
- Mean change in HbA1c from baseline to endpoint, mean (SD) ([4]; patients with FPG ≦ 180 mg/dL, LOCF at endpoint, 1200 mg/day oral plus sulfonylurea): −0.53 (1.03) %
- Mean change in HbA1c from baseline to Week 4, mean (SD) [4, 11]: −0.47 (0.68) %
- Mean change in HbA1c from baseline to Week 8, mean (SD) [4, 11]: −0.57 (0.82) %
- Difference in HbA1c change between D-chiro-inositol and placebo ([4]; patients with FPG≦180 mg/dL): 0.80%
- Glycemic control [5]: significantly improved glyceimic control
- Effect on LDL cholesterol (FIG. 3) [6]: significantly reduced the increase of LDL cholesterol
